Assay results as given in US20080103105A1, “HMG CoA REDUCTASE MEDIATED MODULATION OF NEUROGENESIS” (BrainCells, Inc., priority 2006, published 2008).
Read-outs that look alike come from different tables or passages of the source.

Legend:
[1] = tested on: Human neural stem cells (hNSCs); test: Neuronal differentiation of human neural stem cells (TUJ-1 staining); assay type: cell-based; details: for EC50: agent alone
Source text: In one non-limiting example neurogenesis, a neurogenic response, and neurodifferentiation are all measured in an in vitro assay as follows. Human neural stem cells (hNSCs) are isolated and grown in monolayer culture, plated, treated with varying concentrations of a first neurogenic agent, or a combination of a first neurogenic agent with one or more additional neurogenic agents (test compound), and stained with TUJ-1 antibody to identify neurons and/or GFAP to identify astrocytes, as described in PCT Application No. US06/026677. Mitogen-free test media with a positive control is used for neuronal differentiation, and basal media without growth factors serves as a negative control. Neurogenesis is determined, for example, by measuring the proliferation and/or differentiation of the hNSCs in the presence of varying concentrations of test compound compared to the absence of the test compound (negative control). A neurogenic response is measured, for example, in a similar manner to neurogenesis, except that astrogenesis is also measured and the ratio of neurogenesis to astrogenesis is determined to measure the neurogenic response. Neurodifferentiation is measured, for example, by detecting neurodifferentiation specific expression markers which methods are known in the art.
(§1) Human neural stem cells (hNSCs) were isolated and grown in monolayer culture, plated, treated with varying concentrations of atorvastatin (test compound), and stained with TUJ-1 antibody, as described in U.S. Provisional Application No. 60/697,905 (U.S. Patent Publication 2007/0015138). Mitogen-free test media with a positive control for neuronal differentiation was used along with basal media without growth factors as a negative control.
as §1, with “in the presence or absence of buspirone,” for “(test compound),”, “antibody for the detection of neuronal differentiation or GFAP antibody for the detection of astrocyte differentiation,” for “antibody,”
as §1, with “in the presence or absence of ribavirin,” for “(test compound),”, “antibody for the detection of neuronal differentiation or GFAP antibody for the detection of astrocyte differentiation,” for “antibody,”
as §1, with “in the presence or absence of tacrine,” for “(test compound),”, “antibody for the detection of neuronal differentiation or GFAP antibody for the detection of astrocyte differentiation,” for “antibody,”
Human neural stem cells (hNSCs) were isolated and grown in monolayer culture, plated, treated with varying concentrations of atorvastatin in the presence or absence of azakenpaullone, and stained with TUJ-1 antibody for the detection of neuronal differentiation or GFAP antibody for the detection of astrocyte differentiation, as described in U.S. Provisional Application No. 60/697,905 (U.S. Patent Publication 2007/0015138). […]

[2] = tested on: BrdU positive cells within the granule cell layer of the dentate gyrus
Protocol: Male F344 rats were dosed 1× per day for 28-days with vehicle (n=12 per dose group, p.o.), 5.0 mg/kg fluoxetine (n=12 per dose group, p.o.), 15.0 mg/kg fluoxetine (n=12 per dose group, p.o.), 10.0 mg/kg atorvastatin (n=12 per dose group, p.o.) or the combination of fluoxetine (5.0 mg/kg, p.o.)+atorvastatin (10.0 mg/kg, p.o.).
Male F344 rats were dosed 1× per day for 21-days with 0 (vehicle only), 5.0 mg/kg fluoxetine (n=12 per dose group, p.o.), 15.0 mg/kg fluoxetine (n=12 per dose group, p.o.), 10.0 mg/kg atorvastatin (n=12 per dose group, p.o.) or the combination of fluoxetine (5.0 mg/kg, p.o.)+atorvastatin (10.0 mg/kg, p.o.). BrdU was administered once daily between days 9 and 14 (100 mg/kg/day, i.p., n=12 per dose group). […] Data are presented as percent change in BrdU positive cells per cubic mm dentate gyrus. […] Data are presented as the percentage of cells colabeled for BrdU and the mature neuronal marker NeuN within the dentate gyrus.

[3] = tested on: KA, AMPA, and NMDA iGlu receptors; details: cited from earlier work
human mGlu2 = human mGlu2 (Homo sapiens, UniProt Q14416); details: low nanomolar range; read-out: EC50 against human mGlu2 receptors in vitro; cited from earlier work
human mGlu2, sequence (Q14416 19-872): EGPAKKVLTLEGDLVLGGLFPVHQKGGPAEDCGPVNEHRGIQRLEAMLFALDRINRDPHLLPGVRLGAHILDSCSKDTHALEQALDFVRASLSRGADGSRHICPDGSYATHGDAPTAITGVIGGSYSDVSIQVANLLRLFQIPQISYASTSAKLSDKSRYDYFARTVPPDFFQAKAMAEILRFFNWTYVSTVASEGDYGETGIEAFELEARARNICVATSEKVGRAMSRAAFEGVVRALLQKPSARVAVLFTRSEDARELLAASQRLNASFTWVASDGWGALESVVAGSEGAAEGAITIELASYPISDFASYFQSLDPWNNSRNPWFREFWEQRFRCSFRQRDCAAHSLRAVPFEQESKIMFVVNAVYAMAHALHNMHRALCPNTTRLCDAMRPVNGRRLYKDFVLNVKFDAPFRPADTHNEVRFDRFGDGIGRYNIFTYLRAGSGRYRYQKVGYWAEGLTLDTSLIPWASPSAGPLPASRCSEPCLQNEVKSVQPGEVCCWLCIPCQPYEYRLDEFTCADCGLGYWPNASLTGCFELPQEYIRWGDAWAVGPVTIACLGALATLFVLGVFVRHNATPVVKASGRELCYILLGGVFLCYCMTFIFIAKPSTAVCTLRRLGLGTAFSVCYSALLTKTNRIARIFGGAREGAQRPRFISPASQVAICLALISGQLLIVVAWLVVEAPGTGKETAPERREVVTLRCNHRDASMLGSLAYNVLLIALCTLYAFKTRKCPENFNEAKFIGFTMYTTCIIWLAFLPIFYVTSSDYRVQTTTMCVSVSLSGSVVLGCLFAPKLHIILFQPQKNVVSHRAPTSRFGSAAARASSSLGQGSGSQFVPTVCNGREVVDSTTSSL

human mGlu3 = human mGlu3 (Homo sapiens, UniProt Q14832); details: low nanomolar range; read-out: EC50 against human mGlu3 receptors in vitro; cited from earlier work
human mGlu3, sequence (Q14832 23-879): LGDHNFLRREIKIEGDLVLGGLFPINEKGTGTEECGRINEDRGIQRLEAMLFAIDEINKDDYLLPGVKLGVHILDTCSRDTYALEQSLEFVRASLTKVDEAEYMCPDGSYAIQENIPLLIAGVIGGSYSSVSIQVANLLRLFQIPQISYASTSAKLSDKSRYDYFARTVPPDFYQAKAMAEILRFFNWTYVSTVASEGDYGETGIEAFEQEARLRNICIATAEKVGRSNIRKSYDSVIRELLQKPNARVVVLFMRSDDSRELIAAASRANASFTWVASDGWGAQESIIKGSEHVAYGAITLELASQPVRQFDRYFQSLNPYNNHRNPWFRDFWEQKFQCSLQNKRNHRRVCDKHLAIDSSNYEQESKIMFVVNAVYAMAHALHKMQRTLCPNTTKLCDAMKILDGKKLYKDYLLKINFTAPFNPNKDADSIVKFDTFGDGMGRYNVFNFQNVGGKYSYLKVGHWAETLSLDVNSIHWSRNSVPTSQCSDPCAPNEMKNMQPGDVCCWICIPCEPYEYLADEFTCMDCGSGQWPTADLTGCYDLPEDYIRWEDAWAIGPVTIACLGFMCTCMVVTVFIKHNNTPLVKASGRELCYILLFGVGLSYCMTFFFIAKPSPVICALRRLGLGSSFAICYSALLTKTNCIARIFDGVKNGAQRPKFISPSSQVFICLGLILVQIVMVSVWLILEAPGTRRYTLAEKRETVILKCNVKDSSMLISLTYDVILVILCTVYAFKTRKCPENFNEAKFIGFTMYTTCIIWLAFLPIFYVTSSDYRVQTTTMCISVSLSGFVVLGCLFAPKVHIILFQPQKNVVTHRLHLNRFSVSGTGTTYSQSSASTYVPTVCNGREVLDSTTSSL

mGluR2 = mGluR2 (Homo sapiens, UniProt Q14416); details: read-out: IC50 against mGluR2; cited from earlier work
mGluR2, sequence (Q14416 19-872): as the sequence (Q14416 19-872) above

[4] = tested on: Group I and Group III receptors; details: at sub-mM concentrations; cited from earlier work
mGluR3 = mGluR3 (Homo sapiens, UniProt Q14832); details: read-out: IC50 against mGluR3; cited from earlier work
mGluR3, sequence (Q14832 23-879): as the sequence (Q14832 23-879) above

[5] = Homo sapiens, Neural stem cell, percentage of neuronal positive control, basal media values subtracted, read-out: EC50, neuronal differentiation, agent used alone
[6] = Homo sapiens, Neural stem cell, maximum fixed to 120% for all conditions, read-out: EC50, neuronal differentiation, agent alone, maximum percent of positive control fixed to a common 120%

Q: With `O=C1CC2(CCCC2)CC(=O)N1CCCCN1CCN(c2ncccn2)CC1` [buspirone] as the molecule, how does the EC50 [1, 5] read?
A: 5.8 µM

Q: Which EC50 [1, 6] does the source give for `CC(C)c1c(C(=O)Nc2ccccc2)c(-c2ccccc2)c(-c2ccc(F)cc2)n1CC[C@@H](O)C[C@@H](O)CC(=O)O` [atorvastatin] here?
A: 0.004 µM

Q: And the EC50 ([1]; percentage of neuronal positive control, basal media values subtracted, read-out: EC50, neuronal differentiation, agent used alone)?
A: 0.0031 µM

Q: And the “neuronal differentiation, result in words” value ([1]; percent of neuronal positive control, combination relative to either agent alone)?
A: promoted neuronal differentiation

Q: What about the “number of BrdU positive cells (percent change per cubic mm dentate gyrus)” value ([2]; 10.0 mg/kg atorvastatin p.o. 1× per day) of the same molecule?
A: significantly increased

Q: And the “number of new neurons within the granule cell layer of the dentate gyrus” value ([2]; atorvastatin 10.0 mg/kg p.o. alone or with fluoxetine 5.0 mg/kg p.o., 1× per day)?
A: significant increase

Q: For `N[C@](CC1c2ccccc2Oc2ccccc21)(C(=O)O)[C@H]1C[C@@H]1C(=O)O` [LY341495, (2S)-2-amino-2-(1S,2S-2-carboxycycloprop-1-yl)-3-(xanth-9-yl) propanoic acid], which “activity against KA, AMPA, and NMDA iGlu receptors” value [3] is on record?
A: substantially inactive

Q: With `NC(=O)c1ncn([C@@H]2O[C@H](CO)[C@@H](O)[C@H]2O)n1` [ribavirin] as the molecule, how does the EC50 [1, 5] read?
A: 3.8 µM

Q: Which EC50 [1, 5] does the source give for `NCCc1c[nH]c2ccc(O)cc12` [serotonin] here?
A: 4.5 µM

Q: With `Clc1ccc2c(c1)N=C(N1CCNCC1)c1ccccc1N2` [N-desmethylclozapine] as the molecule, how does the “neurogenic activity in assays as disclosed herein” value [1] read?
A: highly neurogenic

Q: Which EC50 (human mGlu2) does the source give for `NC1(C(=O)O)COC2C(C(=O)O)C21` (single isomer, unassigned; (-)) [LY379268, (−)-2-Oxa-4-aminobicyclohexane-4,6-dicarboxylic acid] here?
A: < 0.01 µM

Q: What about the EC50 (human mGlu3) of the same molecule?
A: < 0.01 µM

Q: Which IC50 (mGluR2) does the source give for `NC1(C(=O)O)CCc2cc(P(=O)(O)O)ccc21` (racemic) [APICA, (RS)-1-amino-5-phosphonoindan-1-carboxylic acid] here?
A: ~30 µM

Q: And the “activity against Group I or Group III receptors” value [4]?
A: no appreciable activity

Q: And the IC50 (mGluR3)?
A: ~30 µM

Q: With `Nc1nc2ncc(CNc3ccc(C(=O)N[C@@H](CCC(=O)O)C(=O)O)cc3)nc2c(=O)[nH]1` [folic acid] as the molecule, how does the EC50 [1, 5] read?
A: 4.8 µM

Q: Which results are given for `O=C1Cc2c([nH]c3ccc(Br)cc23)-c2ncccc2N1` [azakenpaullone]?
A: EC50 [1, 6]: 0.33 µM; EC50 [1, 5]: 1.1 µM; maximum percent of positive control neuronal differentiation ([1]; addition of azakenpaullone): greater than 100%

Q: For `Nc1c2c(nc3ccccc13)CCCC2` [tacrine], which EC50 [1, 5] is on record?
A: 7.4 µM
